Reference: ChEMBL document CHEMBL1125191, “Synthesis, stereochemistry, and biological activity of the 1-(1-phenyl-2-methylcyclohexyl)piperidines and the 1-(1-phenyl-4-methylcyclohexyl)piperidines. Absolute configuration of the potent trans-(-)-1-(1-phenyl-2-methylcyclohexyl)piperidine” (J Med Chem, 1991)

Assays:
Mus musculus [1] = test: Effective dose after subcutaneous administration using rotarod test in mice; assay type: functional
[2] = biological target: T1, Glutamate receptor ionotropic, NMDA 1 (Rattus norvegicus, UniProt P35439); test: Binding affinity by displacement of [3H]TCP from PCP N-methyl-D-aspartate glutamate receptor of tissue homogenate preparation of rat brain without cerebellum (in vitro); assay type: tissue-based
Mus musculus [3] = test: ED50 value by rotarod test on mice at different dosage levels upon subcutaneous administration; assay type: functional; conditions: sc
[4] = biological target: T1, Glutamate receptor ionotropic, NMDA 1; test: Binding affinity by displacement of [3H]TCP from PCP N-methyl-D-aspartate glutamate receptor of tissue homogenate preparation of rat brain without cerebellum; assay type: tissue-based

| Structure (SMILES) | ED50 (Mus musculus [1]; Mus musculus, sc, read-out: ED50) | Ki [2] | ED50 (Mus musculus [1]) | ED50 (Mus musculus [3]) | Ki [4] |
| --- | --- | --- | --- | --- | --- |
| c1ccc(C2(N3CCCCC3)CCCCC2)cc1 [PHENCYCLIDINE] | 4 mg/kg | 53 nM | – | – | – |
| CC1CCCCC1(c1ccccc1)N1CCCCC1 (trans isomer) | – | 25 nM | 3.3 mg/kg | – | – |
| CC1CCCCC1(c1ccccc1)N1CCCCC1 (stereo in doubt; (-)-3) | – | 2180 nM | – | – | – |
| CC1CCCCC1(c1ccccc1)N1CCCCC1 (stereo in doubt; 3) | – | 7400 nM | >150 mg/kg | – | – |
| CC1CCCCC1(c1ccccc1)N1CCCCC1 (stereo in doubt; (+)-3) | – | 2940 nM | >100 mg/kg | – | – |
| CC1CCC(c2ccccc2)(N2CCCCC2)CC1 (stereo in doubt; 17) | – | 617 nM | >150 mg/kg | – | – |
| CC1CCCCC1(C(=N)c1ccccc1)N1CCCCC1 (cis isomer) | – | – | – | > 100 mg/kg | 4700 nM |
| CC1CCC(c2ccccc2)(N2CCCCC2)CC1 (stereo in doubt; 18) | – | 166 nM | 5.5 mg/kg | – | – |
| CC1CCCCC1(C(=N)c1ccccc1)N1CCCCC1 (trans isomer) | – | – | – | – | 23000 nM |
| CC1CCCCC1(c1ccccc1)N1CCCCC1 (stereo in doubt; (-)-2) | – | 11 nM | 1.9 mg/kg | – | – |
| N=C(c1ccccc1)C1(N2CCCCC2)CCCCC1 | – | – | – | > 100 mg/kg | 31000 nM |
| CC1CCCCC1(c1ccccc1)N1CCCCC1 (stereo in doubt; (+)-2) | – | 100 nM | 7.5 mg/kg | – | – |
